# Measured values as given in US20040214238A1 (priority 2003, published 2004).
# Where “and” joins values, the source holds several entries; their conditions need not be identical. Identical values can stand only once.
# Experiments:
# [1] = test system: N-type calcium channel; details: in vivo; cited from earlier work
# [2] = biological target: vanilloid receptor (VR1) in DRG neurons (Rattus norvegicus, UniProt O35433); experiment: capsaicin screening by whole cell voltage clamp at -60 mV; details: 2 μM capsaicin, 128 responsive neurons
# Sequence of vanilloid receptor (VR1) in DRG neurons (O35433 whole entry): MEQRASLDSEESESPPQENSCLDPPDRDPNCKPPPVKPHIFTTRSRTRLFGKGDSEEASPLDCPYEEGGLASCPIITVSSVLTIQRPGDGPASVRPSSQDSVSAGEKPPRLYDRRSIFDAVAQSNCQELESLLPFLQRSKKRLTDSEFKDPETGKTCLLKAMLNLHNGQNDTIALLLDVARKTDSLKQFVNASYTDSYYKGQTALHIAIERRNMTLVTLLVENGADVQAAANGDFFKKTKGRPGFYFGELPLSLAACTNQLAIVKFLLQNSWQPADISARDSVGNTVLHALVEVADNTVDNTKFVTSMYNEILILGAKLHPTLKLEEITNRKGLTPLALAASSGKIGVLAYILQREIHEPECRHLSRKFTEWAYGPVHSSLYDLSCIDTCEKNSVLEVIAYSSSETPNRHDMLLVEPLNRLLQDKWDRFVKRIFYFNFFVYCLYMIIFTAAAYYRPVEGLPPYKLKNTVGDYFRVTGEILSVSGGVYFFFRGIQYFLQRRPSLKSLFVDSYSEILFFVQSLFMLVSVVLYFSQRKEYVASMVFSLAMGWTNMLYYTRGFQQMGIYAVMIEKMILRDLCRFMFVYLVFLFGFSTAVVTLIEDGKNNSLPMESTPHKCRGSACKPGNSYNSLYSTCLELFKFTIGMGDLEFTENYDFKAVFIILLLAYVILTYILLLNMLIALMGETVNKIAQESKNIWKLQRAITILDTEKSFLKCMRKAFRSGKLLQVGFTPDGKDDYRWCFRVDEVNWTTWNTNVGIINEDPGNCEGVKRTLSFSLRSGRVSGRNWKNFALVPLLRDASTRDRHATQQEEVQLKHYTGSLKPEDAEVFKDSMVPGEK
# Description: Viable neurons were identified using whole cell voltage clamp recordings based on the presence of robust voltage-gated sodium and potassium currents. Neurons were then exposed to 2 μM capsaicin (Sigma). After exposure, the bath was washed and the cell allowed to recover. Capsaicin-responsive cells had to recover after wash to be included. Capsaicin-non-responsive neurons were expose at least twice to capsaicin before the cell was collected and counted as capsaicin-non-responsive. Coverslips in the study were limited to two exposures of capsaicin to avoid desensitization. 1-2 MΩ microelectrodes were filled with an internal solution consisting of 90 mM KCl, 10 mM NaCl, 5 mM MgCl2, 40 mM HEPES, 5 mM EGTA and the pH was adjusted to 7.4 with KOH. The bath solution contained 140 mM NaCl, 5 mM KCl, 2 mM CaCl2, 0.5 mM MgCl2, 10 mM HEPES, and 15 mM Dextrose. […]
# Viable neurons were identified by the presence of robust voltage-gated sodium and potassium currents during brief depolarizations from a holding potential of −80 mV. […] Capsaicin-non-responsive neurons were exposed to capsaicin at least twice before the cell was harvested and counted as capsaicin-non-responsive. […] For capsaicin screening, currents were recorded using 1-2 MΩ microelectrodes filled with an internal solution consisting of 90 mM KCl, 10 mM NaCl, 5 mM MgCl2 40 mM HEPES, and 5 mM EGTA adjusted to a pH of 7.4 with KOH. […]
# [3] = test system: N-type calcium current in neurons of the dorsal root ganglia; assay type: cell-based, rat
# [4] = test system: CaV1.3 L-type channels; details: cited from earlier work
compound,measurement,setting,value
CSCC[C@@H]1NC(=O)[C@H](CC(C)C)NC(=O)[C@H](CCCNC(=N)N)NC(=O)[C@H](CO)NC(=O)[C@@H]2CSSC[C@@H]3NC(=O)[C@H](CO)NC(=O)CNC(=O)[C@H]([C@@H](C)O)NC(=O)[C@H](CSSC[C@H](N)C(=O)N[C@@H](CCCCN)C(=O)NCC(=O)N[C@@H](CCCCN)C(=O)NCC(=O)N[C@@H](C)C(=O)N[C@@H](CCCCN)C(=O)N2)NC(=O)[C@H](CSSC[C@@H](C(N)=O)NC(=O)[C@H](CCCCN)NC(=O)CNC(=O)[C@H](CO)NC(=O)[C@H](CCCNC(=N)N)NC3=O)NC(=O)[C@H](CC(=O)O)NC(=O)[C@H](Cc2ccc(O)cc2)NC1=O [MVIIA],analgesic activity,[1],powerful analgesic
same,side effects as analgesic,[1],undesirable side effects
COc1cc(CNC(=O)CCCC/C=C/C(C)C)ccc1O [capsaicin],average amplitude of capsaicin-induced inward current,[2],986±118 pA
ω-conotoxin GVIA (CKSPGSSCSPTSYNCCRSCNPYTKRCY) [ω-Ctx GVIA],ω-Ctx GVIA-sensitive current as % of the total whole cell calcium current,[3],71±2% and 68±2%
same,"ω-Ctx GVIA-sensitive, N-type current as component of the total Ca current",[3],~70%
same,effect on CaV1.3 L-type current,[4],inhibited by high concentrations
same,effect on neuronal CaV1.3 L-type channels,[4],not ω-Ctx GVIA-sensitive
